Molecules are shown by their SMILES.

This assay deals with RKO human colon adenocarcinoma cells (RKOp27 subclone), proliferating. The assay can be described thus: Alamar Blue cell viability assay, RKO p27 uninduced (proliferating). As to conditions: RKOp27, 72 h, read-out: −log EC50 [mol/l] RKO p27 uninduced (proliferating), anti-proliferative/cytotoxic activity (converted). A general note: Resazurin is reduced to fluorescent resorufin, in cell work by metabolically active cells.
Procedure: The anti-proliferative/cytotoxic activity of the compounds described herein can be tested on subclones of RKO human colon adenocarcinoma cells (Schmidt et al., Oncogene 19, 2423-2429; 2000) using the Alamar Blue cell viability assay (described in O'Brien et al. Eur J Biochem 267, 5421-5426, 2000). The compounds are dissolved as 10 mM solutions in DMSO and subsequently diluted in semi-logarithmic steps. DMSO dilutions are further diluted 1:100 into Dulbecco's modified Eagle's medium (DMEM) containing 10% fetal calf serum to a final concentration twice as much as the final concentration in the test. RKO subclones are seeded into 96 well flat bottom plates at a density of 4000 cells per well in a volume of 50 μl per well. 24 hours after seeding the 50 μl each of the compound dilutions in DMEM medium are added into each well of the 96 well plate. Each compound dilution is tested as triplicates. Wells containing untreated control cells are filled with 50 μl DMEM medium containing 1% DMSO. The cells are then incubated with the substances for 72 hours at 37° C. in a humidified atmosphere containing 5% carbon dioxide. To determine the viability of the cells, 10 μl of an Alamar Blue solution (Biosource) are added and the fluorescence is measured at an extinction of 544 nm and an emission of 590 nm. For the calculation of the cell viability the emission value from untreated cells is set as 100% viability and the emission rates of treated cells are set in relation to the values of untreated cells. Viabilities are expressed as % values. The Graphpad Prism program (GraphPad Software, Inc) is used for the calculation of EC50 values for anti-proliferative/cytotoxic activity out of the obtained dose-response curves.
Each compound dilution is tested as triplicates. Wells containing untreated control cells are filled with 50 μl DMEM medium containing 1% DMSO. The cells are then incubated with the substances for 72 hours at 37° C. in a humidified atmosphere containing 5% carbon dioxide. To determine the viability of the cells, 10 μl of an Alamar Blue solution (Biosource) are added and the fluorescence is measured at an extinction of 544 nm and an emission of 590 nm. For the calculation of the cell viability the emission value from untreated cells is set as 100% viability and the emission rates of treated cells are set in relation to the values of untreated cells. Viabilities are expressed as % values. The Graphpad Prism program is used for the calculation of EC50 values out of the obtained dose-response curves. Viability is compared of proliferating cells grown in the absence of the inducer Ponasterone A, versus viability of cells arrested by the expression of ectopic p27Kip1 induced by Ponasterone A.
With `CN(C(=O)N1N=C2c3cc(F)ccc3OCC2C1c1ccccc1)C1CCCNC1` (mixture of isomers) [Example 25, (3RS,3aRS)-8-Fluoro-3-phenyl-3a,4-dihydro-3H-chromeno[4,3-c]pyrazole-2-carboxylic acid (R)-methyl-piperidin-3-yl-amide and (3RS,3aRS)-8-Fluoro-3-phenyl-3a,4-dihydro-3H-chromeno[4,3-c]pyrazole-2-carboxylic acid (S)-methyl-piperidin-3-yl-amide], the EC50 is not above 100 nM.

Take `CN(C)C(=O)N1N=C2c3cc(F)ccc3OC[C@H]2[C@@H]1c1cccc(O)c1` (racemic) [Example 1, (3RS,3aSR)-8-Fluoro-3-(3-hydroxy-phenyl)-3a,4-dihydro-3H-chromeno[4,3-c]pyrazole-2-carboxylic acid dimethylamide]: the EC50 was 100 to 1000 nM.

In the case of `CN(C)C(=O)N1N=C2c3cc(F)ccc3OC[C@@H]2[C@@H]1c1cccc(O)c1` (racemic) [Example 2, (3RS,3aRS)-8-Fluoro-3-(3-hydroxy-phenyl)-3a,4-dihydro-3H-chromeno[4,3-c]pyrazole-2-carboxylic acid dimethylamide], the EC50 was 100 to 1000 nM.

In the case of `CN(C)CCN(C)C(=O)N1N=C2c3cc(F)ccc3OC[C@@H]2[C@@H]1c1cccc(O)c1` (racemic) [Example 4, (3RS,3aRS)-8-Fluoro-3-(3-hydroxy-phenyl)-3a,4-dihydro-3H-chromeno[4,3-c]pyrazole-2-carboxylic acid (2-dimethylamino-ethyl)-methyl-amide], the EC50 is not above 100 nM.

Regarding `CN1CCC(N(C(=O)N2N=C3c4cc(F)ccc4OC[C@@H]3[C@@H]2c2cccc(O)c2)C2CC2)CC1` (racemic) [Example 5, (3RS,3aRS)-8-Fluoro-3-(3-hydroxy-phenyl)-3a,4-dihydro-3H-chromeno[4,3-c]pyrazole-2-carboxylic acid cyclopropyl-(1-methyl-piperidin-4-yl)-amide], the EC50 was 100 to 1000 nM.

Turning to `CN(C)CCCN(C)C(=O)N1N=C2c3cc(F)ccc3OC[C@@H]2[C@@H]1c1cccc(O)c1` (racemic) [Example 6, (3RS,3aRS)-8-Fluoro-3-(3-hydroxy-phenyl)-3a,4-dihydro-3H-chromeno[4,3-c]pyrazole-2-carboxylic acid (3-dimethylamino-propyl)-methyl-amide], the EC50 was not above 100 nM.

Turning to `CN1CCC(N(C)C(=O)N2N=C3c4cc(F)ccc4OC[C@@H]3[C@@H]2c2ccccc2)CC1` (racemic) [Example 9, (3RS,3aRS)-8-Fluoro-3-phenyl-3a,4-dihydro-3H-chromeno[4,3-c]pyrazole-2-carboxylic acid methyl-(1-methyl-piperidin-4-yl)-amide], the EC50 was not above 100 nM.

Regarding `CCN(CCN(C)C)C(=O)N1N=C2c3cc(F)ccc3OC[C@@H]2[C@@H]1c1ccccc1` (racemic) [Example 10, (3RS,3aRS)-8-Fluoro-3-phenyl-3a,4-dihydro-3H-chromeno[4,3-c]pyrazole-2-carboxylic acid (2-dimethylamino-ethyl)-ethyl-amide], the EC50 was not above 100 nM.

As to `CN(C)CCCN(C)C(=O)N1N=C2c3cc(F)ccc3OC[C@@H]2[C@@H]1c1ccccc1` (racemic) [Example 11, (3RS,3aRS)-8-Fluoro-3-phenyl-3a,4-dihydro-3H-chromeno[4,3-c]pyrazole-2-carboxylic acid (3-dimethylamino-propyl)-methyl-amide], the EC50 is not above 100 nM.

For `CC(C)CN(C)C(=O)N1N=C2c3cc(F)ccc3OC[C@@H]2[C@@H]1c1ccccc1` (racemic) [Example 12, (3RS,3aRS)-8-Fluoro-3-phenyl-3a,4-dihydro-3H-chromeno[4,3-c]pyrazole-2-carboxylic acid isobutyl-methyl-amide], the EC50 is 100 to 1000 nM.

Consider `CN1CCC(N(C(=O)N2NC3c4cc(F)ccc4OC[C@H]3[C@@H]2c2ccccc2)C2CC2)CC1` (mixture of isomers) [Example 15, (3RS,3aRS)-8-Fluoro-3-phenyl-1,3a,4,9b-tetrahydro-3H-chromeno[4,3-c]pyrazole-2-carboxylic acid cyclopropyl-(1-methyl-piperidin-4-yl)-amide], for which the EC50 is not above 100 nM.

Regarding `CN(C)CCN(C)C(=O)N1N=C2c3cc(F)ccc3OC[C@@H]2[C@@H]1c1ccccc1` (racemic) [Example 19, (3RS,3aRS)-8-Fluoro-3-phenyl-3a,4-dihydro-3H-chromeno[4,3-c]pyrazole-2-carboxylic acid (2-dimethylamino-ethyl)-methyl-amide], the EC50 is not above 100 nM.

For `CN(CCCN)C(=O)N1N=C2c3cc(F)ccc3OC[C@@H]2[C@@H]1c1ccccc1` (racemic) [Example 20, (3RS,3aRS)-8-Fluoro-3-phenyl-3a,4-dihydro-3H-chromeno[4,3-c]pyrazole-2-carboxylic acid (3-amino-propyl)-methyl-amide], the EC50 is 100 to 1000 nM.

`CNCCCN(C)C(=O)N1N=C2c3cc(F)ccc3OC[C@@H]2[C@@H]1c1ccccc1` (racemic) [Example 22, (3RS,3aRS)-8-Fluoro-3-phenyl-3a,4-dihydro-3H-chromeno[4,3-c]pyrazole-2-carboxylic acid methyl-(3-methylamino-propyl)-amide]: the EC50 was not above 100 nM.

Take `CNCCN(C)C(=O)N1N=C2c3cc(F)ccc3OC[C@@H]2[C@@H]1c1ccccc1` (racemic) [Example 23, (3RS,3aRS)-8-Fluoro-3-phenyl-3a,4-dihydro-3H-chromeno[4,3-c]pyrazole-2-carboxylic acid methyl-(2-methylamino-ethyl)-amide]: the EC50 was 100 to 1000 nM.

Consider `CN(C(=O)N1N=C2c3cc(F)ccc3OC[C@@H]2[C@@H]1c1cccc(O)c1)C1CCNCC1` (racemic) [Example 27, (3RS,3aRS)-8-Fluoro-3-(3-hydroxy-phenyl)-3a,4-dihydro-3H-chromeno[4,3-c]pyrazole-2-carboxylic acid methyl-piperidin-4-yl-amide], for which the EC50 is not above 100 nM.

In the case of `CN(CCN1CCCC1)C(=O)N1N=C2c3cc(F)ccc3OC[C@@H]2[C@@H]1c1ccccc1` (racemic) [Example 28, (3RS,3aRS)-8-Fluoro-3-phenyl-3a,4-dihydro-3H-chromeno[4,3-c]pyrazole-2-carboxylic acid methyl-(2-pyrrolidin-1-yl-ethyl)-amide], the EC50 is 100 to 1000 nM.

In the case of `CC(=O)N1CCN(CCN(C)C(=O)N2N=C3c4cc(F)ccc4OC[C@@H]3[C@@H]2c2ccccc2)CC1` (racemic) [Example 29, (3RS,3aRS)-8-Fluoro-3-phenyl-3a,4-dihydro-3H-chromeno[4,3-c]pyrazole-2-carboxylic acid [2-(4-acetyl-piperazin-1-yl)-ethyl]methyl-amide], the EC50 is 100 to 1000 nM.

Turning to `CN(CCCN1CCCC1)C(=O)N1N=C2c3cc(F)ccc3OC[C@H]2[C@H]1c1ccccc1` (racemic) [Example 34, (3SR,3aSR)-8-Fluoro-3-phenyl-3a,4-dihydro-3H-chromeno[4,3-c]pyrazole-2-carboxylic acid methyl-(3-pyrrolidin-1-yl-propyl)-amide], the EC50 was not above 100 nM.

`CC(=O)N1CCN(CCCN(C)C(=O)N2N=C3c4cc(F)ccc4OC[C@H]3[C@H]2c2ccccc2)CC1` (racemic) [Example 35, (3SR,3aSR)-8-Fluoro-3-phenyl-3a,4-dihydro-3H-chromeno[4,3-c]pyrazole-2-carboxylic acid [3-(4-acetyl-piperazin-1-yl)-propyl]-methyl-amide]: the EC50 is 100 to 1000 nM.

As for `CN(CCN1CCCCC1)C(=O)N1N=C2c3cc(F)ccc3OC[C@H]2[C@H]1c1ccccc1` (racemic) [Example 36, (3SR,3aSR)-8-Fluoro-3-phenyl-3a,4-dihydro-3H-chromeno[4,3-c]pyrazole-2-carboxylic acid methyl-(2-piperidin-1-yl-ethyl)-amide], the EC50 is 100 to 1000 nM.

As to `CN(CCCN1CCCCC1)C(=O)N1N=C2c3cc(F)ccc3OC[C@H]2[C@H]1c1ccccc1` (racemic) [Example 37, (3SR,3aSR)-8-Fluoro-3-phenyl-3a,4-dihydro-3H-chromeno[4,3-c]pyrazole-2-carboxylic acid methyl-(3-piperidin-1-yl-propyl)-amide], the EC50 is not above 100 nM.

Consider `CN(CCCN1CCC1)C(=O)N1N=C2c3cc(F)ccc3OC[C@H]2[C@H]1c1ccccc1` (racemic) [Example 38, (3SR,3aSR)-8-Fluoro-3-phenyl-3a,4-dihydro-3H-chromeno[4,3-c]pyrazole-2-carboxylic acid (3-azetidin-1-yl-propyl)-methyl-amide], for which the EC50 was not above 100 nM.

As for `CC(C)NCCN(C)C(=O)N1N=C2c3cc(F)ccc3OC[C@H]2[C@H]1c1ccccc1` (racemic) [Example 39, (3SR,3aSR)-8-Fluoro-3-phenyl-3a,4-dihydro-3H-chromeno[4,3-c]pyrazole-2-carboxylic acid (2-isopropylamino-ethyl)-methyl-amide], the EC50 is not above 100 nM.

For `CN(CCNC(C)(C)C)C(=O)N1N=C2c3cc(F)ccc3OC[C@H]2[C@H]1c1ccccc1` (racemic) [Example 40, (3SR,3aSR)-8-Fluoro-3-phenyl-3a,4-dihydro-3H-chromeno[4,3-c]pyrazole-2-carboxylic acid (2-tert-butylamino-ethyl)-methyl-amide], the EC50 was not above 100 nM.

As to `CC(C)CNCCN(C)C(=O)N1N=C2c3cc(F)ccc3OC[C@H]2[C@H]1c1ccccc1` (racemic) [Example 41, (3SR,3aSR)-8-Fluoro-3-phenyl-3a,4-dihydro-3H-chromeno[4,3-c]pyrazole-2-carboxylic acid (2-isobutylamino-ethyl)-methyl-amide], the EC50 is not above 100 nM.

With `CC(C)CNCCCN(C)C(=O)N1N=C2c3cc(F)ccc3OC[C@H]2[C@H]1c1ccccc1` (racemic) [Example 42, (3SR,3aSR)-8-Fluoro-3-phenyl-3a,4-dihydro-3H-chromeno[4,3-c]pyrazole-2-carboxylic acid (3-isobutylamino-propyl)-methyl-amide], the EC50 was 100 to 1000 nM.

In the case of `CN(CCCNC(C)(C)C)C(=O)N1N=C2c3cc(F)ccc3OC[C@H]2[C@H]1c1ccccc1` (racemic) [Example 43, (3SR,3aSR)-8-Fluoro-3-phenyl-3a,4-dihydro-3H-chromeno[4,3-c]pyrazole-2-carboxylic acid (3-tert-butylamino-propyl)-methyl-amide], the EC50 is 100 to 1000 nM.

The record behind these values is US20100104659A1, “BENZOPYRANOPYRAZOLES” (priority 2006, published 2010).
